According to patent US10813919B2, “Use of histone deacetylase inhibitors for enhancing immunotherapies” (Indiana University Research and Technology Corporation, priority 2016, dated 2020):

Legend:
iNOS = assay: Fold change of iNOS in J774M cells; format: cell-based; details: J774M cells treated with entinostat
[1] = test system: MDSC-like cell line J774M; assay: T cell suppression assay with entinostat treated J774M cells; format: cell-based; details: J774M treated 24 hours in vitro, co-culture with pre-activated CD8+ T cells 68-72 hours
Experimental: The J774M cell line was cultured with DMEM (Corning) media with 10% fetal bovine serum (Corning) and 1% Pen/Strep (Life Technologies). Cells were incubated in 37° C. and 5% CO2. […] T cell isolation & activation: Whole spleens were harvested from naïve mice, mashed and passed through a 70 μm strainer. Cells were then washed, lysed with RBC lysis buffer (Affymetrix 00-4333-57), and cultured in RPMI medium with 10% FBS, Pen (100 units/ml)-Strep ([…]), 1 mM sodium pyruvate, […] non-essential amino-acids, 2 mM L-Glutamine, 55 μM BME, with anti-CD3 (eBioscience 16-0031-85) and anti-CD28 (eBioscience 5012503) for approximately 24 hours. CD8^+ T cells were then isolated using a CD8a^+ T cell isolation kit from Miltenyi Biotec (130-104-075), stained with CFSE (NC9759757), according to the manufacturer's protocol, and co-cultured with MDSCs as described below. T cell suppression assay: T cells (1×10^5; isolated with a CD8a^+ T cell isolation kit; Miltenyi Biotec) were cultured in plates with varying numbers of either G-MDSCs or M-MDSCs isolated from RENCA tumors for 16-18 hours. T cells isolated in the listed method were co-cultured with entinostat treated J774M cells for 68-72 hours. Cells were then harvested, stained and analyzed via FACS analysis.

[2] = test system: G-MDSCs or M-MDSCs isolated from RENCA tumors; assay: T cell suppression assay, ex vivo, MDSCs isolated from RENCA tumors of treated mice; format: cell-based, mouse
Experimental: T cell isolation & activation: Whole spleens were harvested from naïve mice, mashed and passed through a 70 μm strainer. Cells were then washed, lysed with RBC lysis buffer (Affymetrix 00-4333-57), and cultured in RPMI medium with 10% FBS, Pen (100 units/ml)-Strep ([…]), 1 mM sodium pyruvate, […] non-essential amino-acids, 2 mM L-Glutamine, 55 μM BME, with anti-CD3 (eBioscience 16-0031-85) and anti-CD28 (eBioscience 5012503) for approximately 24 hours. CD8^+ T cells were then isolated using a CD8a^+ T cell isolation kit from Miltenyi Biotec (130-104-075), stained with CFSE (NC9759757), according to the manufacturer's protocol, and co-cultured with MDSCs as described below. MDSC Isolation: MDSCs were isolated from RENCA tumors of each group using Miltenyi Biotec's Myeloid Derived Suppressor Cell Isolation Kit (130-094-538) and co-cultured with isolated CD8^+ T cells in serially diluted concentrations. T cell suppression assay: T cells (1×10^5; isolated with a CD8a^+ T cell isolation kit; Miltenyi Biotec) were cultured in plates with varying numbers of either G-MDSCs or M-MDSCs isolated from RENCA tumors for 16-18 hours. T cells isolated in the listed method were co-cultured with entinostat treated J774M cells for 68-72 hours. Cells were then harvested, stained and analyzed via FACS analysis. Cell staining and flow cytometry: Splenocytes, tumor cell suspensions, and peripheral blood cells were washed, blocked with Fc Block (anti-mouse CD16/32 mAb; BD Biosciences) at 4° C. for 15 minutes, and stained with fluorescence conjugated antibodies against surface markers: CD45 (clone 30-F11), CD11b (clone M1/70), Gr1 (clone RB6-8C5), Ly6C (clone AL-21), Ly6G (clone 1A8), F480 (clone BM8), CD8a (clone 53-6.7), CD4 (clone RM4-5) antibodies purchased from BioLegend, eBioscience or BD Biosciences. Cells were then fixed in Fixation/Permeabilization buffer (eBioscience) and stained with antibodies against intracellular proteins, including FoxP3 (NRRF-30) and Granzyme B (clone GB11). The antibodies were purchased from BD Biosciences, Biolegend, and R&D Systems and used in staining. […]

arginase-1 (Arg1) = assay: Quantitative real-time PCR of Arginase 1 in J774M cells; format: cell-based; details: 0.5 μM, 1 μM, 2 μM vs untreated control (p=0.003; 0.0041; 0.0043)
Experimental: Quantitative real-time PCR: mRNA was extracted from J774M cells that were treated±entinostat using standard Trizol protocols. RNA concentration and purity were determined through measurement of A260/280 ratios with a Synergy Hi Multi-Mode reader. cDNA was prepared using the iScript kit (Bio-Rad) and qPCR was performed using an Applied Biosystems 7900HT fast real time PCR system. Sequence Detection Systems software v2.3 was used to identify the cycle threshold (Ct) values and to generate gene expression curves. Data were normalized to Gapdh expression and fold change was calculated. The primers used for target genes were: Gapdh_foward 5′-[…]-3′, Gapdh_reverse 5′-[…]-3′ (SEQ ID NO:1), Arginase 1_forward 5′-[…]-3′ (SEQ ID NO:2), and Arginase 1_reverse 5′-[…]-3′ (SEQ ID NO:3).

[3] = test system: T regulatory cells (CD4+FoxP3+); assay: FACS analysis of T regulatory cells in end-point blood and tumor samples; format: in vivo, Balb/c mice; details: blood
Experimental: (§1) Tumor suspension and spleenocyte preparation: Live tumor sections were isolated from tumors, cut into small pieces, and digested with an enzyme cocktail solution from the mouse tumor dissociation kit (Miltenyi Biotec—130-096-730). Tumors were incubated with the enzyme cocktail for 30 minutes at 37° C. with agitation. The enzyme reaction was arrested using PBS, cells were spun at 300 g, 4° C. for 7 minutes, re-suspended in PBS and mashed through a 70 um cell strainer. Cells from these tumors were either used for flow cytometry analysis or further processed and used for functional analyses.
Cell staining and flow cytometry: Splenocytes, tumor cell suspensions, and peripheral blood cells were washed, blocked with Fc Block (anti-mouse CD16/32 mAb; BD Biosciences) at 4° C. for 15 minutes, and stained with fluorescence conjugated antibodies against surface markers: CD45 (clone 30-F11), CD11b (clone M1/70), Gr1 (clone RB6-8C5), Ly6C (clone AL-21), Ly6G (clone 1A8), F480 (clone BM8), CD8a (clone 53-6.7), CD4 (clone RM4-5) antibodies purchased from BioLegend, eBioscience or BD Biosciences. Cells were then fixed in Fixation/Permeabilization buffer (eBioscience) and stained with antibodies against intracellular proteins, including FoxP3 (NRRF-30) and Granzyme B (clone GB11). The antibodies were purchased from BD Biosciences, Biolegend, and R&D Systems and used in staining. […]

J774M cells = assay: J774M cell proliferation or viability; format: cell-based; details: 0.01-5 μM, up to 48 hours
Experimental: The J774M cell line was cultured with DMEM (Corning) media with 10% fetal bovine serum (Corning) and 1% Pen/Strep (Life Technologies). Cells were incubated in 37° C. and 5% CO2.

[4] = test system: RENCA-Luc murine renal cell carcinoma; assay: In vivo tumor growth (RENCA), orthotopic RENCA-Luc syngeneic model; set-up: species or system Balb/c mice; details: vs control; entinostat 5 mg/kg oral 5 days/week, anti-PD-1 10 mg/kg I.P.; end-point tumor weight
Experimental: Cell lines: The RENCA-Luc murine renal cell carcinoma cell line, purchased from American Type Culture Collection (National Cancer Institute), was stably transfected with a luciferase reporter in the Pili laboratory. Cells were cultured using RPMI 1640 (Corning) with 10% fetal bovine serum (Corning) and 1% Pen/Strep (Life Technologies). Cells were incubated in an incubator maintained at 37° C. and 5% CO2. 75-80% confluent cells were harvested for orthotopic injection into the kidney of Balb/c mice using 0.25% Trypsin (Corning) and suspended in a 1:1 ratio of MATRIGEL® (Corning) and DPBS (Gibco).
In vivo tumor growth (RENCA): All procedures were performed and approved in strict accordance with the Institutional Animal Care and Use Committee (IACUC) at Roswell Park Cancer Institute, Indiana University School of Medicine, and with the NIH Guide for the Care and Use of Laboratory Animal guidelines.
Female five- to six-week old Balb/c mice (Charles Rivers) were maintained in a temperature controlled room with a 12/12 hour light/dark schedule and food provided ad libitum. 70-80% confluent RENCA-Luc cells were harvested using 0.25% Trypsin (Corning) and suspended in a 1:1 ratio of matrigel (Corning) and HBSS (Gibco), 10 μl containing 1×10^4 cells was injected under the renal capsule. […]

[5] = test system: Myeloid derived suppressor cells (G-MDSCs, M-MDSCs); assay: FACS analysis of G-MDSC and M-MDSC in tumor and blood; format: in vivo, Balb/c mice
Experimental: as §1
Cell staining and flow cytometry: Splenocytes, tumor cell suspensions, and peripheral blood cells were washed, blocked with Fc Block (anti-mouse CD16/32 mAb; BD Biosciences) at 4° C. for 15 minutes, and stained with fluorescence conjugated antibodies against surface markers: CD45 (clone 30-F11), CD11b (clone M1/70), Gr1 (clone RB6-8C5), Ly6C (clone AL-21), Ly6G (clone 1A8), F480 (clone BM8), CD8a (clone 53-6.7), CD4 (clone RM4-5) antibodies purchased from BioLegend, eBioscience or BD Biosciences. Cells were then fixed in Fixation/Permeabilization buffer (eBioscience) and stained with antibodies against intracellular proteins, including FoxP3 (NRRF-30) and Granzyme B (clone GB11). The antibodies were purchased from BD Biosciences, Biolegend, and R&D Systems and used in staining. Stained cells and isotype-control-stained cells, were assayed on a LSR4 or Fortessa flow cytometer (BD Biosciences). Data analysis was performed using the FlowJo (FlowJo LLC) and/or ModFit LT 4.1 software.

chemokines and cytokines = assay: Proteome Profiler Mouse XL Cytokine array (Ary028) of tumor lysates and serum; format: in vivo
Experimental: Proteome Profile: Tumor tissue was homogenized in PBS containing protease inhibitors. Following homogenization, Triton X-100 was added to a final concentration of 1%, frozen at −80° C., thawed, centrifuged as 10,000 g for 5 minutes, quantified and assayed according to the manufacturer's protocol. Blood samples were collected from mice in each cohort, allowed to clot for 2 hours at room temperature, centrifuged at 2000 g for 15 minutes. Serum samples were frozen at −80° C. until time of analysis at which time they were run according to manufacturer's protocol. All samples were processed and run on R&D Systems mouse XL cytokine array kit (Ary028).

[6] = test system: advanced renal cell carcinoma; details: advanced renal cell carcinoma patients, cited from earlier work

Compound	iNOS fold change (iNOS)	CD8+ T cell proliferation in co-culture with treated J774M cells [1]	capacity of MDSCs (G-MDSC or M-MDSC) to inhibit CD8+ T cell proliferation ([2]; MDSC to T cell ratios 1:1, 0.5:1, 0.25:1, co-culture 16-18 hours, mice treated in vivo, p≤0.01)	CD8+ T cell proliferation in co-culture with MDSCs from treated mice ([2]; co-culture 16-18 hours, similar to control stimulated CD8+ T cells alone)	increase in Granzyme B production by CD8+ T cells ([2]; compared to co-culture with MDSCs from untreated tumor-bearing mouse, p<0.01)	arginase-1 (Arg1) expression (arginase-1 (Arg1))	FoxP3 protein levels (MFI) in circulating CD4+FoxP3+ cells [3]	J774M cell proliferation or viability (J774M cells)	tumor growth inhibition [4]	tumor infiltrating G-MDSC population ([5]; TME, vs control)	tumor infiltrating M-MDSC population ([5]; TME, vs control)	circulating G-MDSCs ([5]; blood)	circulating M-MDSCs ([5]; blood)	circulating pro-tumor associated chemokines and cytokines (chemokines and cytokines; serum vs control, adiponectin, angiopoietin-2, chitinase 3-like 1, CCL12, C5, c-reactive protein, IL-6, pentraxins 2/3, periostin, CCL17, M-CSF, GM-CSF, MMP-2, MMP-9, CCL2, osteoprotegerin, VCAM)	MDSC associated trafficking/accumulation and expansion/activation cytokines in the TME (chemokines and cytokines; tumor lysates vs control, CCL2, VCAM-1/CD106, Angiopoietin-2, G-CSF, GM-CSF, IL-1β, IL-10)	anti-tumor chemokines and cytokines in the TME (chemokines and cytokines; tumor lysates vs control, CXCL10/IP-10, E-selectin, IL-1ra, IL-4, IL-12p40)	upregulation of anti-tumor cytokines/chemokines (chemokines and cytokines; vs control cohort, CXCL9, CXCL10, IL-4, IL-13, E-selectin, IL-12p40)	treatment related adverse events [6]	increase in overall survival ([6]; compared to standard of care, everolimus)
Nc1ccccc1NC(=O)c1ccc(CNC(=O)OCc2cccnc2)cc1 [entinostat, Pyridin-3-ylmethyl N-[[4-[(2-aminophenyl)carbamoyl]phenyl]methyl]carbamate]	inconclusive results	significant increase	significant reduction	~90%	approximately 40%	significant inhibition	significant decrease	no significant alteration	52.6%	slight increase	slight increase	slight decreases	significant increases	Significant decreases	significant reduction	significant upregulation	note observed	–	–
nivolumab: a PD-1 inhibitor, immune checkpoint inhibitor approved for advanced renal cell carcinoma	–	–	–	–	–	–	–	–	–	–	–	–	–	–	–	–	–	limited treatment related adverse events	78%
